Measured values from patent publication US20010012893A1, “Acyclovir diester derivatives” (Drug Innovation & Design, Inc., priority 1997, published 2001).
“Also recorded” adds a separate entry of the source.

What was measured:
HSV-1 = assay: Dermal HSV-1 infection in guinea pigs, topical treatment, compared with placebo/vehicle; format: in vivo; details: guinea pig; for reduction in lesion area (in words) / reduction in lesion number (in words) / reduction in lesion virus titer / skin viral titres (in words): dermal HSV-1, topical, compared to vehicle or to Prodrug 1
Procedure: The formulation for Prodrug 1 contained 5% EL-620 EMULPHOR (polyoxyethylated castor oil) (Rhone Poluenc), 5% CARBOPOL (Carboxypolymethylene, sodium salt) (B. F. Goodrich), 10% ethanol and 2% by weight Prodrug 1. The balance of the formulation consisted of water.
EL-620 EMULPHOR and water were mixed and ultrasonicated to give a clear emulsion, to which the ethanol was added. The prodrug was then added, and the mixture was ultrasonicated. The sodium carbopol was then added to the emulsion and mixed until to homogeneity.
The placebo was prepared identically to the pharmaceutical compositions except that the prodrugs were omitted.
Female Hartley outbred guinea pigs, 400 to 450 grams, were obtained from Charles River Breeding Labs, Wilmington, Mass. Animals were anesthetized with 25 mg/kg ketamine and 5 mg/kg xylazine SQ. Hair on the dorsum from the shoulders to the rump was removed with electric clippers followed by two 5-10 minute applications of a chemical depilatory. A grid of four areas was demarcated with a pen on both sides of the spine at levels corresponding to mid back and rump.
Undiluted HSV-1 virus stock (0.035 ml) was applied to each different area and introduced through the skin at well-spaced sites at ten activations of a six-pronged spring-loaded vaccination instrument (Sterneedle, Pan Ray Division, Ormont Drug, Englewood, N.J.). The day of inoculation is Day 0. Approximately 250 mg of drug or placebo was applied to the areas according to the dosing regimen on Days 1, 2 and 3. Eight guinea pigs were used during the experiments allowing eight comparisons between each drug and its placebo.
On Day 4 regrown hair on the dorsum of the guinea pigs was removed with one 3-4 minute application of a chemical depilatory. HSV lesions were counted and Polaroid pictures of the animals' backs were taken. The animals were sacrificed using CO2 gas and the full thickness skin of the back was removed by dissection. The square of the skin from each of the four treatment areas was placed into 15 mls of tissue culture medium with 2% FBS in an ice bath. The samples were then homogenized in a stomacher Lab Blender 80 (Tekmar Co.). Debris was pelleted by centrifugation and the supernatants collected and frozen at −70° C. until assay for infectivity by plaque formation in VERO cells.
The mean and standard deviation for number of lesions, total lesion area and lesion virus titer were computed. Paired data (drug/vehicle) were evaluated by the Wilcoxon signed-rank test using percent differences between log10 derivatives of mean lesions severity at drug-treated sites compared to the vehicle-treated sites.
Prodrug 2 was formulated as described in Example 1. One Hartley guinea pig was inoculated with HSV-1 as described in Example 1. The guinea pig was treated with Prodrug 2 according to the protocol used in Example 1 for Prodrug 1.

pig liver esterase = assay: Incubation with pig liver esterase in phosphate buffered D2O, followed by NMR; format: in vitro ADME
Excerpt: This assay is described in Glazier, WO 91/19721 entitled “Phosphorus Prodrugs” and can be used to determine suitable hydroxyl or amino protecting groups which can be cleaved in vivo. The entire teachings of […] are incorporated herein by reference. It is to be understood that there are other in vitro assays known to one of ordinary skill in the art employing esterases, amidases or enzymes capable of cleaving carbonate, carbamate, ester and amide groups which can also be used to determine suitable protecting groups.

herpes simplex labialis = details: cited from earlier work
[1] = dermal HSV-1, topical 2% formulation, Days 1-3, read Day 4, p<0.01

SMILES | reduction in lesion area compared with placebo (HSV-1; [1]) [%] | reduction in lesion number compared with placebo (HSV-1; [1]) [%] | reduction in skin viral titres compared with placebo (HSV-1; dermal HSV-1, topical 2% formulation, Days 1-3, read Day 4, plaque formation in VERO cells, p<0.01) [%] | reduction in lesion area (in words) (HSV-1) | reduction in lesion number (in words) (HSV-1) | reduction in lesion virus titer / skin viral titres (in words) (HSV-1) | degradation products with esterase (pig liver esterase) | effectiveness of oral administration for cold sores (herpes simplex labialis; oral) | response of cold sores to topical treatment (herpes simplex labialis; topical)
COC(=O)CC(OP(=O)([O-])OCCOCn1cnc2c(=O)[nH]c(N)nc21)c1ccc(OC(=O)C(C)(C)C)cc1.[Na+] (stereo not drawn) [Prodrug 1] | 79 | 72 | 93 | dramatic reduction | dramatic reduction | dramatic reduction | degraded to acyclovir monophosphate and p-hydroxycinnamic |  | 
COC(=O)CC(OP(=O)([O-])OCCOCn1cnc2c(=O)[nH]c(N)nc21)c1ccc(OC(C)=O)cc1.[Na+] (stereo not drawn) [Prodrug 2] |  |  |  | comparable reduction; also recorded: dramatic reduction | comparable reduction; also recorded: dramatic reduction | comparable reduction; also recorded: dramatic reduction |  |  | 
Nc1nc2c(ncn2COCCO)c(=O)[nH]1 [acyclovir] |  |  |  |  |  |  |  | only partially effective | do not respond
